Measurements: patent publication US10620222B2, “Electrified compositions for determining the risk of developing adolescent idiopathic scoliosis through the use of GI protein receptor” (CHU Sainte-Justine, priority 2008, dated 2020)
Values joined by “and” are separate entries in the source; they are usually repeats but may differ in a detail not shown here. Identical values can stand only once.

System: receptors coupled to Gi proteins expressed on osteoblasts
Test: Cellular Dielectric Spectroscopy (CDS, CELLKEY) response to Gi-coupled receptor ligands in osteoblasts from control and AIS subjects
Assay type: cell-based, human
Design: % of control / % of control signal, Group 1, min diff. / % of control signal, Group 2, min diff. / % of control signal, Group 3, min diff.: concentration or dose not given beside the values; dZiec value / Absolute dZiec, control value of max diff. (maximal control value): unit not given here
Settings: for dZiec value / Absolute dZiec, control value of max diff. (maximal control value) / Absolute dZiec, control value of min diff. (minimal control value) / Absolute dZiec, Group 1, max diff. (group value) / Absolute dZiec, Group 1, min diff. (group value) / Absolute dZiec, Group 2, max diff. (group value) / Absolute dZiec, Group 2, min diff. (group value) / Absolute dZiec, Group 3, max diff. (group value) / Absolute dZiec, Group 3, min diff. (group value): 300 μM ligand; for dZiec value: n1, n2 of Exper. 1-3; for Absolute dZiec, control value of max diff. (maximal control value) / Absolute dZiec, control value of min diff. (minimal control value): osteoblasts of control subjects; for Absolute dZiec, control value of max diff. (maximal control value) / Absolute dZiec, control value of min diff. (minimal control value) / Absolute dZiec, Group 1, max diff. (group value) / Absolute dZiec, Group 1, min diff. (group value) / Absolute dZiec, Group 2, max diff. (group value) / Absolute dZiec, Group 2, min diff. (group value) / Absolute dZiec, Group 3, max diff. (group value) / Absolute dZiec, Group 3, min diff. (group value): from FIGS. 11A-11F; for Absolute dZiec, Group 1, max diff. (group value) / Absolute dZiec, Group 1, min diff. (group value) / % of control signal, Group 1, max diff. / % of control signal, Group 1, min diff. / Absolute dZiec, Group 2, max diff. (group value) / Absolute dZiec, Group 2, min diff. (group value) / % of control signal, Group 2, max diff. / % of control signal, Group 2, min diff. / Absolute dZiec, Group 3, max diff. (group value) / Absolute dZiec, Group 3, min diff. (group value) / % of control signal, Group 3, max diff. / % of control signal, Group 3, min diff.: osteoblasts; for Absolute dZiec, Group 1, max diff. (group value): AIS Group 1 value of max diff.; for Absolute dZiec, Group 1, min diff. (group value): AIS Group 1 value of min diff.; for % of control signal, Group 1, max diff.: AIS Group 1 vs maximal control value; for % of control signal, Group 1, min diff.: AIS Group 1 vs minimal control value; for Absolute dZiec, Group 2, max diff. (group value): AIS Group 2 value of max diff.; for Absolute dZiec, Group 2, min diff. (group value): AIS Group 2 value of min diff.; for % of control signal, Group 2, max diff.: AIS Group 2 vs maximal control value; for % of control signal, Group 2, min diff.: AIS Group 2 vs minimal control value; for Absolute dZiec, Group 3, max diff. (group value): AIS Group 3 value of max diff.; for Absolute dZiec, Group 3, min diff. (group value): AIS Group 3 value of min diff.; for % of control signal, Group 3, max diff.: AIS Group 3 vs maximal control value; for % of control signal, Group 3, min diff.: AIS Group 3 vs minimal control value
Text: Bone specimens were obtained intraoperatively from vertebras (varying from T3 to L4 according to the surgical procedure performed), while with trauma cases used as non-scoliotic controls bone specimens were obtained from other anatomical sites (tibia or femur, and in one case from an iliac crest biopsy). Osteoblasts and myoblasts isolated as previously described (Moreau A, Wang D S, Forget S et al. Melatonin Signaling Dysfunction in Adolescent Idiopathic Scoliosis. Spine 2004; 29:1772-81; Azeddine et al., 2007 Molecular determinants of melatonin signaling dysfunction in adolescent idiopathic scoliosis. Clin Orthop Relat Res. 2007, 462:45-52), were cultured at 37° C./5% CO2 in MEM supplemented with 10% fetal bovine serum (FBS) and 100 μg/mL streptomycin. Prior to the experiment, cells were seeded into the CELLKEY™ label-free cellular analysis system standard 96-well plates at a density of 5×10^4/well and grown for 24 h and incubated in standard conditions (37° C./5% CO2). In some plates, Pertussis toxin (100 ng/mL, Sigma, Oakville, ON, Canada) treatment was performed 16 h before the CDS assay. Following overnight incubation, plates were placed onto the CELLKEY™ label-free cellular analysis system and growth medium was exchanged to assay buffer (Hanks, Balanced Salt Solution containing 20 mM HEPES and 0.1% BSA) before starting the experiment. Cells were then allowed to equilibrate at room temperature for 30 min. Pre-addition measurements were made for 5 min to obtain a baseline reading. […] The quick update rate (2 s.) of the CELLKEY™ label-free cellular analysis system allows detection of these immediate changes in impedance. Impedance measurements were collected for 10 min to 15 min at 28° C. after ligand addition to monitor cellular responses to ligand interaction and to generate CELLKEY™ label-free cellular analysis system response profiles that are characteristic of the signaling mechanisms used.
The response induced by the various ligands to their receptors was measured by cellular dielectric spectroscopy (CDS) using the CELLKEY™ label-free cellular analysis technology. (MDS Sciex, San Francisco, Calif., USA). The CELLKEY™ label-free cellular analysis system integrates a proprietary impedance measurement system, custom 96-well microliter plate, onboard 96-well fluidics, and environment control and custom acquisition and analysis software in a full solution package (MDS Sciex) that is compatible with commercially available robotic platforms. Small voltage at 24 frequencies, from 1 KHz to 10 MHz, is applied to a monolayer of cells settled in a 96-well microplate containing electrodes at the bottom, and the resultant current is measured at an update rate of 2 s. […] Onboard fluid additions and exchanges are handled by 96-well head fluid delivery device with a range of 5-500 μL. In addition to the cell plate location, the CELLKEY™ label-free cellular analysis system includes two additional stations for 96- or 384-well compound plates. All aspects of assay set up, execution, and data acquisition and analysis are controlled by CELLKEY™ label-free cellular analysis software.
The minimal (min) and maximal (max) values represent the mean of three independent measurements performed in duplicate (six values in total) for a given patient/control subject. […] Duplicates (n1 and n2) of three independent experiments are presented.

## O=C(O)/C=C\C(=O)O.c1ccc(N2CCN(CCCOc3ccc4c(c3)OCO4)CC2)cc1 [BP554, 1-[3-(3,4-Methylenedioxyphenoxy)propyl]-4-phenyl-piperazine maleate]
Osteoblasts of AIS#1020 (Group 3) relative to CTR#60, maleate
  % of control: 44.5% and 42.3% and 48.5% and 45.1% and 43.7% and 46.6%
Osteoblasts of AIS#1020 (Group 3), maleate
  dZiec value: 62.57 and 64.57 and 78.63 and 76.63 and 66.6 and 74.6
Osteoblasts of AIS#1198 (Group 3 in Table II) relative to CTR#69, maleate
  % of control: 41.1% and 45.0% and 40.6% and 43.5%
Osteoblasts of AIS#1198 (Group 3 in Table II), maleate
  dZiec value: 59.83 and 64.83 and 74.63 and 70.63 and 63.73 and 71.73
Osteoblasts of AIS#1385 (Group 2) relative to CTR#69, maleate
  % of control: 50.4% and 43.4% and 51.9% and 49.0% and 46.4% and 44.8%
Osteoblasts of AIS#1385 (Group 2), maleate
  dZiec value: 73.41 and 68.41 and 86.15 and 85.15 and 72.78 and 73.78
Osteoblasts of AIS#1468 (Group 3) relative to CTR#61, maleate
  % of control: 63.8% and 66.8% and 67.5% and 69.1% and 66.0% and 67.8%
Osteoblasts of AIS#1468 (Group 3), maleate
  dZiec value: 84.51 and 96.51 and 104.4 and 112.4 and 95.45 and 103.45
Osteoblasts of AIS#1474 (Group 1) relative to CTR#60, maleate
  % of control: 28.4% and 27.5% and 31.8% and 29.7% and 28.7% and 29.1%
Osteoblasts of AIS#1474 (Group 1), maleate
  dZiec value: 39.94 and 41.94 and 51.45 and 50.45 and 43.7 and 46.7
Osteoblasts of AIS#1488 (Group 1) relative to CTR#69, maleate
  % of control: 30.2% and 29.2% and 32.7% and 30.0% and 28.8% and 32.3%
Osteoblasts of AIS#1488 (Group 1), maleate
  dZiec value: 44.06 and 46.06 and 54.24 and 52.24 and 45.15 and 53.15
Osteoblasts of AIS#1513 (Group 3) relative to CTR#61, maleate
  % of control: 68.8% and 71.4% and 73.3% and 74.6% and 71.5% and 72.9%
Osteoblasts of AIS#1513 (Group 3), maleate
  dZiec value: 91.15 and 103.15 and 113.38 and 121.38 and 103.27 and 111.27
Osteoblasts of AIS#1549 (Group 1) relative to CTR#61, maleate
  % of control: 19.7%
Osteoblasts of AIS#1550 (Group 2) relative to CTR#60, maleate
  % of control: 53.1% and 56.8% and 56.5% and 58.5% and 55.2% and 57.4%
Osteoblasts of AIS#1550 (Group 2), maleate
  dZiec value: 74.64 and 86.64 and 91.46 and 99.46 and 84.05 and 92.05
Osteoblasts of control CTR#60, maleate
  dZiec value: 140.49/— and 152.49/— and 162/— and 170/— and 152.25/— and 160.25/—
Osteoblasts of control CTR#61, maleate
  dZiec value: 132.45/— and 144.45/— and 154.6/— and 162.6/— and 144.53/— and 152.53/—
Osteoblasts of control CTR#69, maleate
  dZiec value: 145.69/— and 157.69/— and 165.87/— and 173.87/— and 156.78/— and 164.78/—
  Absolute dZiec, control value of max diff. (maximal control value): 166
  Absolute dZiec, control value of min diff. (minimal control value): 128
  Absolute dZiec, Group 1, max diff. (group value): 32
  Absolute dZiec, Group 1, min diff. (group value): 49
  % of control signal, Group 1, max diff.: 19%
  % of control signal, Group 1, min diff.: 38%
  Absolute dZiec, Group 2, max diff. (group value): 67
  Absolute dZiec, Group 2, min diff. (group value): 88
  % of control signal, Group 2, max diff.: 40%
  % of control signal, Group 2, min diff.: 69%
  Absolute dZiec, Group 3, max diff. (group value): 99
  Absolute dZiec, Group 3, min diff. (group value): 107
  % of control signal, Group 3, max diff.: 60%
  % of control signal, Group 3, min diff.: 84%

## Brc1c(NC2=NCCN2)ccc2nccnc12 [UK14304, 5-bromo-N-(4,5-dihydro-1H-imidazol-2-yl)-6-quinoxalinamine]
Osteoblasts of AIS#1020 (Group 3) relative to CTR#60
  % of control: 42.4% and 37.2% and 34.7% and 40.5% and 37.5% and 41.7%
Osteoblasts of AIS#1020 (Group 3)
  dZiec value: 42.74 and 39.74 and 43.5 and 51.5 and 41.62 and 49.62
Osteoblasts of AIS#1198 (Group 3 in Table II) relative to CTR#69
  % of control: 42.6% and 43.7% and 57.1% and 54.0% and 49.1% and 58.9%
Osteoblasts of AIS#1198 (Group 3 in Table II)
  dZiec value: 44.16 and 46.16 and 56.22 and 54.22 and 46.19 and 54.19
Osteoblasts of AIS#1468 (Group 3) relative to CTR#61
  % of control: 72.7% and 71.7% and 76.2% and 68.8% and 73.0%
Osteoblasts of AIS#1468 (Group 3)
  dZiec value: 65.72 and 67.72 and 77.77 and 75.77 and 67.75 and 75.75
Osteoblasts of AIS#1474 (Group 1) relative to CTR#60
  % of control: 20.4% and 19.3% and 18.6% and 19.1% and 17.5% and 16.4%
Osteoblasts of AIS#1474 (Group 1)
  dZiec value: 20.6 and 23.35 and 24.35 and 19.48
Osteoblasts of AIS#1488 (Group 1) relative to CTR#69
  % of control: 25.3% and 24.2% and 26.3% and 18.8% and 28.2% and 28.5%
Osteoblasts of AIS#1488 (Group 1)
  dZiec value: 26.24 and 25.55 and 25.92 and 18.92 and 26.55
Osteoblasts of AIS#1513 (Group 3) relative to CTR#61
  % of control: 64.7% and 64.0% and 70.1% and 63.2% and 65.8% and 67.8%
Osteoblasts of AIS#1513 (Group 3)
  dZiec value: 58.45 and 60.45 and 71.58 and 69.58 and 61.02 and 69.02
Osteoblasts of AIS#1549 (Group 1) relative to CTR#61
  % of control: 30.0% and 30.8% and 33.7% and 33.1% and 35.3% and 36.1%
Osteoblasts of AIS#1549 (Group 1)
  dZiec value: 27.08 and 29.08 and 34.45 and 36.45 and 32.76 and 36.76
Osteoblasts of AIS#1550 (Group 2) relative to CTR#60
  % of control: 53.2% and 42.7% and 45.3% and 35.2% and 41.6% and 45.5%
Osteoblasts of AIS#1550 (Group 2)
  dZiec value: 53.62 and 45.62 and 56.75 and 44.75 and 46.19 and 54.19
Osteoblasts of control CTR#60
  dZiec value: 100.78/— and 106.78/— and 125.27/— and 127.27/— and 111.02/— and 119.02/—
Osteoblasts of control CTR#61
  dZiec value: 90.39/— and 94.39/— and 102.1/— and 110.1/— and 92.75/— and 101.75/—
Osteoblasts of control CTR#69
  dZiec value: 103.67/— and 105.67/— and 98.38/— and 100.38/— and 94.02/— and 92.02/—
  Absolute dZiec, control value of max diff. (maximal control value): 115
  Absolute dZiec, control value of min diff. (minimal control value): 98
  Absolute dZiec, Group 1, max diff. (group value): 21
  Absolute dZiec, Group 1, min diff. (group value): 32
  % of control signal, Group 1, max diff.: 18%
  % of control signal, Group 1, min diff.: 33%
  Absolute dZiec, Group 2, max diff. (group value): 45
  Absolute dZiec, Group 2, min diff. (group value): 50
  % of control signal, Group 2, max diff.: 39%
  % of control signal, Group 2, min diff.: 51%
  Absolute dZiec, Group 3, max diff. (group value): 60
  Absolute dZiec, Group 3, min diff. (group value): 71
  % of control signal, Group 3, max diff.: 52%
  % of control signal, Group 3, min diff.: 72%
